Reference: PMC10272180, “Ancient medicinal plant rosemary contains a highly efficacious and isoform-selective KCNQ potassium channel opener” (Communications Biology, 2023)

Key:
KCNQ5 = KCNQ5 (Homo sapiens, UniProt Q9NR82); test: TEVC of KCNQ5 homomers expressed in Xenopus laevis oocytes; format: cell-based
Source text: (§1) We generated cRNA transcripts encoding human KCNQ1, 2, 3, and 5 (wild-type and mutant) by in vitro transcription using the mMessage mMachine kit (Thermo Fisher Scientific, Waltham, MA, USA) according to manufacturer’s instructions, after vector linearization, from cDNA sub-cloned into expression vectors (pTLNx and pXOOM) incorporating Xenopus laevis β-globin 5’ and 3’ UTRs flanking the coding region to enhance translation and cRNA stability. Mutant KCNQ cDNAs were generated by Genscript (Piscataway, NJ, USA) and cRNAs made as above. We injected defolliculated stage V and VI Xenopus laevis oocytes (Xenoocyte, Dexter, MI, USA) with KCNQ cRNAs (2–10 ng) and incubated the oocytes at 16 °C in ND96 oocyte storage solution containing penicillin and streptomycin, with daily washing, for 2–4 days prior to two-electrode voltage-clamp (TEVC) recording.
(§2) We performed TEVC at room temperature using an OC-725C amplifier (Warner Instruments, Hamden, CT, USA) and pClamp10 software (Molecular Devices, Sunnyvale, CA, USA) 2–4 days after cRNA injection. We placed oocytes in a small-volume oocyte bath (Warner) and viewed them with a dissection microscope for cellular electrophysiology. We sourced chemicals from Sigma-Aldrich (St. Louis, MO, USA) and Combi-Blocks (San Diego, CA, USA). We studied effects of Salvia rosmarinus extracts and of compounds, solubilized directly in bath solution (in mM): 96 NaCl, 4 KCl, 1 MgCl2, 1 CaCl2, 10 HEPES (pH 7.6). We introduced extracts or compounds into the oocyte recording bath by gravity perfusion at a constant flow of 1 ml per minute for 3 min prior to recording. Pipettes were of 1-2 MΩ resistance when filled with 3 M KCl. We recorded currents in response to voltage pulses between −120 mV and +40 mV at 10 mV intervals from a holding potential of −80 mV, to yield current-voltage relationships and examine activation kinetics. We analyzed data using Clampfit (Molecular Devices) and Graphpad Prism software (GraphPad, San Diego, CA, USA), stating values as mean ± SEM. We plotted raw or normalized tail currents versus prepulse voltage and fitted with a single Boltzmann function:1 g=(A1−A2)/1+exp[V1/2−V/Vs]y+A2 where g is the normalized tail conductance, A1 is the initial value at -∞, A2 is the final value at +∞, V1/2 is the half-maximal voltage of activation and Vs the slope factor. We fitted activation and deactivation kinetics with single exponential functions.

KCNQ2/5 = biological target: T1, KCNQ2/5 (Homo sapiens, UniProt O43526+Q9NR82); test: TEVC of KCNQ2/5 heteromers expressed in Xenopus laevis oocytes; format: cell-based
T1 construct: expressed in transfected cells; host or cells: Xenopus laevis oocytes co-injected with cRNAs
Source text: as §1, §2

KCNQ2/3/5 = biological target: T2, KCNQ2/3/5 (Homo sapiens, UniProt O43525+O43526+Q9NR82); test: TEVC of KCNQ2/3/5 heteromers expressed in Xenopus laevis oocytes; format: cell-based
T2 construct: expressed in transfected cells; host or cells: Xenopus laevis oocytes co-injected with cRNAs (1:1:1 according to the authors' reply)
Source text: as §1, §2

KCNQ3*-M240A = KCNQ3*-M240A (Homo sapiens, UniProt O43525, A315T/M240A); test: TEVC of mutant KCNQ3*-M240A in oocytes; format: cell-based; details: 100 µM
Source text: as §1
as §2, with “We plotted raw or normalized tail currents versus prepulse voltage and fitted with a single Boltzmann function:1 g=(A1−A2)/1+exp[V1/2−V/Vs]y+A2 where g is the normalized tail conductance, A1 is the initial value at -∞, A2 is the final value at +∞, V1/2 is the half-maximal voltage of activation and Vs the slope factor. We fitted activation and deactivation kinetics with single exponential functions.” left out

KCNQ3*-L198F = KCNQ3*-L198F (Homo sapiens, UniProt O43525, A315T/L198F); test: TEVC of mutant KCNQ3*-L198F in oocytes; format: cell-based
Source text: as §1
as §2, with “We recorded currents in response to voltage pulses between −120 mV and +40 mV at 10 mV intervals from a holding potential of −80 mV, to yield current-voltage relationships and examine activation kinetics.” left out

[1] = biological target: T3, KCNQ3* coexpressed with Danio rerio VSP (DrVSP) (Homo sapiens, UniProt O43525, A315T); test: TEVC of KCNQ3* coexpressed with DrVSP, PIP2 depletion at +120 mV; format: cell-based; details: 5 µM
T3 construct: expressed in transfected cells; host or cells: Xenopus laevis oocytes
Source text: Under baseline conditions, binding of the […], lipid-derived signaling molecule phosphatidylinositol 4,5-bisphosphate (PIP2) to KCNQ3 (and other KCNQ isoforms) is required for efficient coupling of the voltage sensor to pore opening and thus voltage-dependent gating[22],[23]. […] Another strategy for PIP2 reduction is to express a voltage-sensitive phosphatase (VSP) that reduces PIP2 levels upon membrane depolarization. […]
We performed TEVC at room temperature using an OC-725C amplifier (Warner Instruments, Hamden, CT, USA) and pClamp10 software (Molecular Devices, Sunnyvale, CA, USA) 2–4 days after cRNA injection. […] We recorded currents in response to voltage pulses between −120 mV and +40 mV at 10 mV intervals from a holding potential of −80 mV, to yield current-voltage relationships and examine activation kinetics. We analyzed data using Clampfit (Molecular Devices) and Graphpad Prism software (GraphPad, San Diego, CA, USA), stating values as mean ± SEM. […]

GABAA receptor = system: GABAA receptor; parameters: method as in PMID 1378214; details: rat brain membranes in vitro; cited from earlier work
mice = details: acute toxicity; cited from earlier work

CC(C)c1cc2c(c(O)c1O)[C@@]1(C(=O)O)CCCC(C)(C)[C@@H]1CC2 [Carnosic acid, carnosic acid]
V0.5 Normalized tail current (KCNQ5; 0.1 µM): -42.57 ± 0.34 mV
V0.5 Normalized tail current (KCNQ5; 1 µM): -42.20 ± 0.27 mV
V0.5 Normalized tail current (KCNQ5; 3 µM): -42.54 ± 0.31 mV
V0.5 Normalized tail current (KCNQ5; 10 µM): -43.64 ± 0.36 mV
V0.5 Normalized tail current (KCNQ5; 30 µM): -45.91 ± 0.40 mV
V0.5 Normalized tail current (KCNQ5; 100 µM): -50.99 ± 0.49 mV
constitutively activated current at −120 mV (KCNQ5; 100 µM): ~ 5%
EC50 (KCNQ5; EC50 EM): 43.4 ± 0.28 µM
EC50 (KCNQ5; EC50 V0.5 Activation): 231 ± 75 µM
V0.5 Normalized tail current (KCNQ2/5; 0.1 µM): -40.58 ± 1.11 mV
V0.5 Normalized tail current (KCNQ2/5; 1 µM): -44.54 ± 0.73 mV
V0.5 Normalized tail current (KCNQ2/5; 3 µM): -47.07 ± 0.55 mV
V0.5 Normalized tail current (KCNQ2/5; 10 µM): -46.44 ± 0.68 mV
V0.5 Normalized tail current (KCNQ2/5; 30 µM): -45.89 ± 0.76 mV
V0.5 Normalized tail current (KCNQ2/5; 100 µM): -46.50 ± 0.97 mV
EC50 (KCNQ2/5; EC50 EM): 4.76 ± 0.34 µM
EC50 (KCNQ2/5; EC50 V0.5 Activation): 0.74 ± 0.12 µM
V0.5 Normalized tail current (KCNQ2/3/5; 0.1 µM): -43.51 ± 1.17 mV
V0.5 Normalized tail current (KCNQ2/3/5; 1 µM): -47.43 ± 0.94 mV
V0.5 Normalized tail current (KCNQ2/3/5; 3 µM): -49.89 ± 0.88 mV
V0.5 Normalized tail current (KCNQ2/3/5; 10 µM): -52.31 ± 0.77 mV
V0.5 Normalized tail current (KCNQ2/3/5; 30 µM): -54.68 ± 0.89 mV
V0.5 Normalized tail current (KCNQ2/3/5; 100 µM): -57.42 ± 1.03 mV
EC50 (KCNQ2/3/5; EC50 EM): 3.13 ± 0.44 µM
EC50 (KCNQ2/3/5; EC50 V0.5 Activation): 2.02 ± 0.44 µM
Slope (KCNQ3*-M240A): 17.31 ± 1.56 mV
V0.5 Normalized tail current (KCNQ3*-M240A): -66.81 ± 1.80 mV
constitutive current at −120 mV (KCNQ3*-M240A): 20%
V0.5 Normalized tail current (KCNQ3*-L198F; 0.1 µM): -58.22 ± 0.59 mV
V0.5 Normalized tail current (KCNQ3*-L198F; 1 µM): -62.90 ± 0.79 mV
V0.5 Normalized tail current (KCNQ3*-L198F; 3 µM): -73.56 ± 0.79 mV
V0.5 Normalized tail current (KCNQ3*-L198F; 10 µM): -91.66 ± 1.99 mV
V0.5 Normalized tail current (KCNQ3*-L198F; 30 µM): -116.6 ± 3.44 mV
EC50 (KCNQ3*-L198F; EC50 EM): 1.15 ± 0.12 µM
EC50 (KCNQ3*-L198F; EC50 V0.5 Activation): 6.28 ± 0.08 µM
carnosic acid efficacy and potency compared with KCNQ3* (KCNQ3*-L198F; dose-response): very similarly
effect on DrVSP-induced KCNQ3* current decay [1]: reduced or prevented
effect on binding of [35S]tert-butylbicyclophosphorothionate (GABAA receptor): decrease the binding affinity
oral LD50 (mice): 7100 mg/kg
